Legend:
Type in all cases: in vivo
mice [1] = assay: Grip strength test during continuous high-intensity exercise (Experiment 2); settings: first grip strength test; Ty 75 mg/kg, CR 260 mg/kg, Ty+CR 75+260 mg/kg, 4 weeks
mice [2] = assay: as above; settings: for Percentage change of muscle strength (grip strength relative to first exercise): gavage daily 4 weeks: Ty 75 mg/kg tyrosol, CR 260 mg/kg creatine monohydrate, Ty+CR 75 mg/kg+260 mg/kg
Description: Animal Experiment 1: Six-week-old mice were used. After one week of acclimation to the environment, the mice were randomly divided into the following groups:
(§1) Control Group: Normal diet, serving as the control group.
(§2) Ty Group: Normal diet, with 75 mg/kg tyrosol administered by gavage daily.
(§3) CR Group: Normal diet, with 260 mg/kg creatine monohydrate administered by gavage daily.
(§4) Ty+CR Group: Normal diet, with 75 mg/kg tyrosol+260 mg/kg creatine monohydrate administered by gavage daily.
(§5) This regimen continued for 4 weeks. The first grip strength test was conducted 30 minutes after the last gavage. The grip strength of the mice's limbs was measured using a grip strength meter. After a 1-hour rest, the mice underwent the first exhaustive swimming exercise. […] The mice were then placed in a weighted swimming tank at a water temperature of 30±1° C. for the exhaustive swimming test. Exhaustion was considered if the mice touched the bottom of the tank three consecutive times within 30 seconds. The detector recorded the mice's bottom-touching instances, and upon determining exhaustion, the swimming tank automatically lifted the mice, recording the exhaustive swimming time.
(§6) 24 hours after the first swimming exercise, the second grip strength test and exhaustive swimming exercise were conducted using the same methods, recording grip strength data and exhaustive swimming time. The third and fourth grip strength tests and exhaustive swimming exercises were conducted 24 hours after the previous exercise, recording the respective data. The gavage regimen remained unchanged during the intervals.
Note: The data compared each group's grip strength in subsequent exercises to their grip strength in the first exercise, reflected the difference in grip strength from the initial value.

mice [3] = assay: Weighted exhaustive swimming test during continuous high-intensity exercise (Experiment 2); settings: for Percentage change of exhaustive exercise time (relative to first exercise): gavage daily 4 weeks: Ty 75 mg/kg tyrosol, CR 260 mg/kg creatine monohydrate, Ty+CR 75 mg/kg+260 mg/kg; for Exhaustive swimming exercise time compared to control group, FIG. 2 / Trend of exhaustive swimming exercise time during continuous exercise, FIG. 2: Ty 75 mg/kg, CR 260 mg/kg, Ty+CR 75+260 mg/kg; for Exhaustive swimming exercise time compared to control group, FIG. 2: 4 weeks; for Trend of exhaustive swimming exercise time during continuous exercise, FIG. 2: four exercises 24 h apart
Description: After one week of acclimation to the environment, the mice were randomly divided into the following groups:
as §1, §2, §3, §4, §5, §6
Note: The data compared each group's exhaustive exercise time in subsequent exercises to their exhaustive exercise time in the first exercise, reflected the difference in exhaustive exercise time from the initial value.

mice [4] = assay: Weighted exhaustive swimming test during continuous high-intensity exercise (Experiment 3)
Description: (§7) Animal Experiment 2: Six-week-old mice were used. After one week of acclimation to the environment, the mice were randomly divided into the following groups:
as §1
(§8) Ty 1 Group: Normal diet, with 2.6 mg/kg tyrosol administered by gavage daily.
(§9) CR 1-3 Groups: Normal diet, with 65 mg/kg, 390 mg/kg, and 1300 mg/kg creatine monohydrate administered by gavage daily.
(§10) Ty+CR 1-4 Groups: Normal diet, with 2.6 mg/kg tyrosol+65 mg/kg creatine monohydrate, 130 mg/kg tyrosol+130 mg/kg creatine monohydrate, 390 mg/kg tyrosol+1300 mg/kg creatine monohydrate, and 2.6 mg/kg tyrosol+1300 mg/kg creatine monohydrate administered by gavage daily.
With the exception of groups Ty 1, CR 1, and Ty+CR 1 which were fed for 8 weeks, all other dosing groups were fed for 4 weeks, with one daily gavage. Groups CR 3, Ty+CR 3, and Ty+CR 4 received their daily gavage dose in two separate administrations each day. Half of the control group was fed for 4 weeks, and the other half for 8 weeks. The first grip strength test was conducted 30 minutes after the last gavage, followed by the first exhaustive swimming exercise after a 1-hour rest. Grip strength and swimming exercise methods were the same as previously described. […]

skeletal muscle of mice = assay: Phosphocreatine and creatine levels in dissected leg skeletal muscle after continuous interval electrical stimulation (Experiment 1); settings: for Creatine (CR) level in skeletal muscle / Phosphocreatine (PCr) level in skeletal muscle / Total creatine (TCr) level in skeletal muscle: 2 weeks diet: CR 5% creatine monohydrate, Ty+CR 1% tyrosol and 5% creatine monohydrate, mean±SE; for Total creatine (TCr) level in skeletal muscle: sum of PCr and CR
Description: Animal Experiment: Thirty 8-week-old mice were prepared and acclimated to the laboratory environment for one week before being randomly divided into three groups. Control Group: Normal diet with no added active ingredients, serving as the control group. CR Group: Normal diet supplemented with 5% creatine monohydrate. Ty+CR Group: Normal diet supplemented with 1% tyrosol and 5% creatine monohydrate.
After two weeks of feeding, the mice were anesthetized, and the leg skeletal muscles were dissected, showing clear connective tissue without blood. For muscle contraction tests via electrical stimulation, the muscles were first incubated in a specific physiological buffer solution for 10 minutes to recover from dissection. The muscles were then clamped with aluminum forceps and stimulated using platinum electrodes and a capacitor alternating polarity discharge.
The muscles were subjected to 250 ms electrical stimulation with six intervals, each interval progressively shortened from 4 s to 1 s. After six interval stimulations, a 1-minute observation period followed before the next round, totaling four rounds. The left and right leg muscles of each mouse were labeled, and subjected to the aforementioned electrical stimulation test.
Phosphocreatine (PCr) and creatine (CR) levels were immediately measured in the dissected right leg muscles after the electrical stimulation test. The dissected left leg muscles of all groups were measured for phosphocreatine and creatine levels 5 minutes after the test. Total creatine (TCr) levels were the sum of phosphocreatine and creatine levels. Standard fluorescence assay was used to determine phosphocreatine and creatine levels in muscle samples extracted with perchloric acid precipitation.
Note: Values are expressed as mean±SE, in mmol/kg dry weight.

mice [5] = assay: Grip strength test during continuous high-intensity exercise (Experiment 3)
Description: as §7, §1, §8, §9, §10
With the exception of groups Ty 1, CR 1, and Ty+CR 1 which were fed for 8 weeks, all other dosing groups were fed for 4 weeks, with one daily gavage. Groups CR 3, Ty+CR 3, and Ty+CR 4 received their daily gavage dose in two separate administrations each day. Half of the control group was fed for 4 weeks, and the other half for 8 weeks. The first grip strength test was conducted 30 minutes after the last gavage, followed by the first exhaustive swimming exercise after a 1-hour rest. Grip strength and swimming exercise methods were the same as previously described. 24 hours after the first swimming exercise, the second grip strength test and exhaustive swimming exercise were conducted using the same methods, recording grip strength data and exhaustive swimming time. The third and fourth grip strength tests and exhaustive swimming exercises were conducted 24 hours after the previous exhaustive swimming exercise, recording grip strength data and exhaustive swimming time. Groups CR 3 and Ty+CR 4 underwent up to the eighth grip strength test and exhaustive swimming exercise, maintaining the same exercise methods. During the intervals, the gavage regimen for each group remained unchanged.

[6] = CR 1: 65 mg/kg creatine monohydrate, Ty+CR 1: 2.6 mg/kg tyrosol+65 mg/kg creatine monohydrate, 8 weeks
[7] = 5 min later after electrical stimulation
[8] = immediately after electrical stimulation

Row | SMILES | Muscle strength (grip strength) compared to control group, FIG. 1 (mice [1]) | Percentage change of muscle strength (grip strength relative to first exercise) (mice [2]; First exercise) | Percentage change of muscle strength (grip strength relative to first exercise) (mice [2]; Fourth exercise) [%] | Percentage change of muscle strength (grip strength relative to first exercise) (mice [2]; Second exercise) [%] | Percentage change of muscle strength (grip strength relative to first exercise) (mice [2]; Third exercise) [%] | Percentage change of exhaustive exercise time (relative to first exercise) (mice [3]; Fourth exercise) [%] | Percentage change of exhaustive exercise time (relative to first exercise) (mice [3]; Second exercise) [%] | Percentage change of exhaustive exercise time (relative to first exercise) (mice [3]; Third exercise) [%] | Exhaustive swimming exercise time compared to control group, FIG. 2 (mice [3]) | Trend of exhaustive swimming exercise time during continuous exercise, FIG. 2 (mice [3]) | also measured
1 | OCCc1ccc(O)cc1 [Ty, tyrosol] | did not show a significant increase in muscle strength | 1 | 85.05 | 97.40 | 96.55 | 88.45 | 97.13 | 94.54 | significantly higher than that of the control group mice | declined to varying degrees | –
2 | CN(CC(=O)O)C(=N)N.O [CR, creatine monohydrate] | significantly increased compared to the control group | 1 | 76.10 | 89.24 | 83.81 | 81.88 | 95.26 | 88.10 | did not improve the endurance of the mice at the beginning | declined to varying degrees | Trend of muscle strength (grip strength) in subsequent exercises, FIG. 1 (mice [2]; four exercises 24 h apart, CR 260 mg/kg, Ty+CR 75+260 mg/kg): decline rate in the creatine group was also rapid; Percentage change of exhaustive exercise time (relative to first exercise) (mice [3]; First exercise): 1; Endurance time (exhaustive swimming) compared to control group, FIG. 6 (mice [4]; [6]): did not improve the endurance time of mice; Endurance (exhaustive swimming time), FIG. 5 (mice [4]; CR 2: 390 mg/kg creatine monohydrate, 4 weeks): able to enhance the endurance of mice and prolong exercise time; Creatine (CR) level in skeletal muscle (skeletal muscle of mice; [7]): 22.7 ± 2.8 mmol/kg dry weight; Phosphocreatine (PCr) level in skeletal muscle (skeletal muscle of mice; [7]): 39.7 ± 2.2 mmol/kg dry weight; Total creatine (TCr) level in skeletal muscle (skeletal muscle of mice; [7]): 62.4 ± 3.0 mmol/kg dry weight; Decrease of creatine levels 5 minutes after end of muscle contraction (creatine conversion) (skeletal muscle of mice; immediate vs 5-min-later data within each group): 53.86%; Creatine (CR) level in skeletal muscle (skeletal muscle of mice; [8]): 49.2 ± 3.7 mmol/kg dry weight; Phosphocreatine (PCr) level in skeletal muscle (skeletal muscle of mice; [8]): 13.4 ± 1.2 mmol/kg dry weight; Total creatine (TCr) level in skeletal muscle (skeletal muscle of mice; [8]): 62.6 ± 4.0 mmol/kg dry weight; Levels of creatine, phosphocreatine and total creatine compared to control group (skeletal muscle of mice; immediately after stimulation or 5 minutes later): higher than those in the control group; Muscle strength (grip strength) compared to control group, FIG. 4 (mice [5]; [6]): significantly increased the muscle strength of the mice; Muscle strength (grip strength) compared to control group, FIG. 3 (mice [5]; CR 2: 390 mg/kg creatine monohydrate, Ty+CR 2: 130 mg/kg tyrosol+130 mg/kg creatine monohydrate, 4 weeks): significantly higher than that in the control group; Trend of muscle strength (grip strength) during continuous exercise, FIG. 3 (mice [5]; CR 2: 390 mg/kg creatine monohydrate, Ty+CR 2: 130 mg/kg tyrosol+130 mg/kg creatine monohydrate, four exercises): marked decline in muscle strength

From US12390425B1, “Use of tyrosol as a physiological enhancer of creatine and its application in continuous high intensity exercise” (MolTek Nutrition Co., Ltd, priority 2024, dated 2025)
